In assay [1] the target is T1, Endothelin-A Receptor (human) (Homo sapiens, UniProt P25101).
T1 construct: expressed in transfected cells; host or cells: Sf9 insect cells
T1 sequence (P25101 21-427): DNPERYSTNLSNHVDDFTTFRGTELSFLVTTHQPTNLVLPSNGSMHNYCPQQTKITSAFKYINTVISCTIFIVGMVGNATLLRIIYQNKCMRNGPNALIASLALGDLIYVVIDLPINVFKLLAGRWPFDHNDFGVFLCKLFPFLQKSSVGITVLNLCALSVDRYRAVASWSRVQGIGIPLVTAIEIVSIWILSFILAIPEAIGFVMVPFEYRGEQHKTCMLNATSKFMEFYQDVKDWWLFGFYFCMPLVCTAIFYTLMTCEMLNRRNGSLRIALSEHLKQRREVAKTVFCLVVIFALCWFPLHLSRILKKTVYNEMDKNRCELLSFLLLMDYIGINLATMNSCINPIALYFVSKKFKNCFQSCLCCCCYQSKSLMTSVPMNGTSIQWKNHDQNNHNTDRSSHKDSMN
Kind of assay: Endothelin Receptor-Assay, [125I]endothelin-1 binding, insect cell (Sf9) membrane having human endothelin-A receptors. Particulars: human ETA, 25° C., 60 minutes, concentration causing PMB=50%. How it is done:
(§1) Endothelin (ET) receptors were prepared by diluting fractions of insect cell (Sf9) membrane having human endothelin-A (ETA) receptors or human endothelin-B (ETB) receptors appeared, with an assay buffer [20 mM Tris-HCl, 2 mM EGTA (ethyleneglycol bis(2-aminoethylether) tetra acetic acid), 5 mM magnesium acetate, 0.1% BSA (bovine serum albumin), 0.03% NAN3, 0.5 mM PMS F (phenyl methyl sulfonyl fluoride), 20 μg/ml leupeptin, 4 μg/ml E-64 (products of the Peptide Institute), 1 μg/ml pepstatin, (pH 7.2)] respectively in a concentration of 1.4 μg/ml in the former case and 0.7 μg/ml in the latter case.
(§2) To 100 μl of each portion was added 5 nM [^125 I] endothelin-1 (2 μl). A dimethylsulfoxide solution (3 μl) of the sample was added thereto and incubated at 25° C. for 60 minutes.
(§3) And, to determine the maximum binding amount (B0) and non-specific binding amount (NSB), lots to which a dimethyl sulfoxide solution (3 μl) or a dimethyl sulfoxide solution (3 μl) containing endothelin-1 (10^-5 M) had been added, were also incubated.
(§4) These lots were supplemented with 0.05% CHAPS (3-[(3-[…])dimethylammonio]-1-propanesulfonate)-assay buffer (1.5 ml), subjected to filtration through a glass fiber filter GF/F (trade name; product of Wattman Ltd. (England)), and then washed with the same buffer (1.5 ml).
(§5) Radioactivity on the filter was counted in a gamma-counter to determine the Percent Maximum Binding (PMB) in accordance with the aforesaid calculation formula. The concentration causing PMB=50% was determined as IC50 value.

Assay [2] concerns the target T2, Endothelin-B Receptor (bovine) (Bos taurus, UniProt P28088).
T2 construct: a fraction of bovine cerebral membrane; from tissue; host or cells: bovine cerebral membrane
T2 sequence (P28088 27-441): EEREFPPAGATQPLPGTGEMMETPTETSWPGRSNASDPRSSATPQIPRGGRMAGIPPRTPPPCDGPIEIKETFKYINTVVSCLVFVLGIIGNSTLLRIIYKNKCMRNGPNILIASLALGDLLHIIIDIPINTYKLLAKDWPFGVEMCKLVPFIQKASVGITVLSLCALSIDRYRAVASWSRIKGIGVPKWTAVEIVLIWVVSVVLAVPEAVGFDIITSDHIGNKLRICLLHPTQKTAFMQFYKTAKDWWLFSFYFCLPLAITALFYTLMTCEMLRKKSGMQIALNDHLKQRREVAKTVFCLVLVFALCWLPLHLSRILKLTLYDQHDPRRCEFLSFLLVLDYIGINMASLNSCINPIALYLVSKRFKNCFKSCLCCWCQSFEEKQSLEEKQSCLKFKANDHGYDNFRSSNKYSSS
Kind of assay: Endothelin Receptor-Assay, [125I]endothelin-1 binding, bovine cerebral membrane. The conditions noted are these: 25° C., 60 minutes, concentration causing PMB=50%. How it is done:
Endothelin-B receptor was prepared by diluting a fraction of bovine cerebral membrane with the same assay buffer as mentioned above to make a solution having a concentration of 180 μg/ml.
as §2
And, to determine the maximum binding amount (B0) and non-specific binding amount (NSB), lots to which a dimethyl sulfoxide solution (3 μl) or a dimethyl sulfoxide solution (3 μl) containing endothelin-1 (10^-5 M) was added were also incubated.
as §4
(§6) Radioactivity on the filter was counted in a gamma-counter to determine the Percent Maximum Binding (PMB) in accordance with the following calculation formula.
The concentration causing PMB=50% was determined as IC50 value.
PMB=[(B-NSB)/(B0 -NSB)]×100

Assay [3] deals with T3, Endothelin-A Receptor (porcine) (Sus scrofa, UniProt Q29010).
T3 construct: a fraction of porcine cardiac ventricular muscle membrane; from tissue; host or cells: porcine cardiac ventricular muscle membrane
T3 sequence (Q29010 21-427): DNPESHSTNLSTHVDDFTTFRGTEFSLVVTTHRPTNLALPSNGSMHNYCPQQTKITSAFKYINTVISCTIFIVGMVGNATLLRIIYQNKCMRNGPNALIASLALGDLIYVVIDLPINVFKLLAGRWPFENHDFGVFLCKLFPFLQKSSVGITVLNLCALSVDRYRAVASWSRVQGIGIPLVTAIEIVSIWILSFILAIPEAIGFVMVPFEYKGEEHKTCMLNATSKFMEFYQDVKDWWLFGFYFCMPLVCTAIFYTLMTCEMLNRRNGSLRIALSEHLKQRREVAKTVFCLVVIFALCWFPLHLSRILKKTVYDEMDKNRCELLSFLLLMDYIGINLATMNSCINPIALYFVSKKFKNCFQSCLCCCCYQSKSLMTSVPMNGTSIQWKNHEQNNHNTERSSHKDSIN
In words: Endothelin Receptor-Assay, [125I]endothelin-1 binding, porcine cardiac ventricular muscle membrane. The conditions noted are these: 25° C., 60 minutes, concentration causing PMB=50%. The protocol:
Endothelin-A receptors was prepared by diluting a fraction of porcine cardiac ventricular muscle membrane with an assay buffer [20 mM Tris-HCl, 2 mM EGTA (ethyleneglycol bis(2-aminoethylether) tetra acetic acid), 5 mM magnesium acetate, 0.1% BSA (bovine serum albumin), 0.03% NAN3, 0.5 mM PMSF (phenyl methyl sulfonyl fluoride), 20 μg/ml leupeptin, 4 μg/ml E-64 (products of the Peptide Institute), 1 μg/ml pepstatin, (pH 7.2)] to make a solution of the fraction of porcine cardiac ventricular membrane (12 μg/ml).
as §2
And, to determine the maximum binding amount (B0) and non-specific binding amount (NSB), lots to which a dimethyl sulfoxide solution (3 μl) or a dimethyl sulfoxide solution (3 μl) containing endothelin-1 (10^-5 M) was added were also incubated. […]
as §6
The concentration causing PMB=50% was determined as IC50 value. […]

Assay [4] concerns the target T4, Endothelin-B Receptor (human) (Homo sapiens, UniProt P24530).
T4 construct: expressed in transfected cells; host or cells: Sf9 insect cells
T4 sequence (P24530 27-442): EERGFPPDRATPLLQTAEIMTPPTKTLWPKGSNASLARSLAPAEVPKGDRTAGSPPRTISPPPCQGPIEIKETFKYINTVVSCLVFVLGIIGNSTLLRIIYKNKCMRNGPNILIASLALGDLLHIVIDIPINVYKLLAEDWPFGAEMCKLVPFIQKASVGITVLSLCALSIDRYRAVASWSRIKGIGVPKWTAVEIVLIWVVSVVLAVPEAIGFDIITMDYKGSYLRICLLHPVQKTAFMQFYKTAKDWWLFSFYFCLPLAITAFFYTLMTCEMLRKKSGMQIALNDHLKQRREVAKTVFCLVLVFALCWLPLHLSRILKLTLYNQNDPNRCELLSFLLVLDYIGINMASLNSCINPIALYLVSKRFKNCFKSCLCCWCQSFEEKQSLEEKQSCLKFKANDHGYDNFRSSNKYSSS
Kind of assay: Endothelin Receptor-Assay, [125I]endothelin-1 binding, insect cell (Sf9) membrane having human endothelin-B receptors. Particulars: human ETB, 25° C., 60 minutes, concentration causing PMB=50%. How it is done:
as §1, §2, §3, §4, §5

Structures are written as SMILES.

As usually defined, the IC50 is the concentration that inhibits the measured activity by half. Read a high IC50 as weaker potency in that assay. Regarding `CCOC(=O)c1c(C)nc2c(c1-c1ccc(OC)cc1)c(=O)n(CC(=O)O)c(=O)n2Cc1ccccc1OC` [Example 12, 2,4(1H,3H)-dioxo-6-ethoxycarbonyl-7-methyl-1-(2-methoxybenzyl)-5-(4-methoxyphenyl)pyrido[2,3-d]pyrimidine-3-acetic Acid], the half-maximal inhibitory concentration (IC50) in assay [1] turned out to be 22 µM; in assay [2] it was 130 µM; in assay [3], 18 µM.

For `COc1ccccc1Cn1c(=O)n(CC(=O)O)c(=O)c2c(-c3cc(=O)c4ccccc4[nH]3)c(C(=O)O)c(C(C)C)nc21` [Example 20], the results for the IC50 in assay [1] and in assay [4] were 0.12 µM and 14 µM, respectively.

`COc1ccccc1Cn1c(=O)n(CC(=O)OC(C)(C)C)c(=O)c2c(-c3ccc4ccccc4n3)c(C(=O)O)c(C(C)C)nc21` [Example 16, t-Butyl [2,4(1H,3H)-dioxo-6-carboxy-7-isopropyl-1-(2-methoxybenzyl)-5-(2-quinolyl)pyrido[2,3-d]pyrimidine]-3-acetate]: the results for the IC50 in assay [1] and in assay [4] were 1.6 µM and 69 µM, respectively.

On to `COc1ccc(Cn2c(=O)n(CC(=O)O)c(=O)c3c(-c4ccc5ccccc5n4)c(C(=O)O)c(C(C)C)nc32)c(OC)c1` [Example 15 Compound No. 4], for which the values for the IC50 in assay [1] and in assay [4] were 0.89 µM and 95 µM, respectively.

In the case of `CCOC(=O)c1c(C(C)C)nc2c(c1-c1ccc(C)cc1)c(=O)n(CC(=O)O)c(=O)n2Cc1ccccc1OC` [Example 10, 2,4(1H,3H)-dioxo-6-ethoxycarbonyl-7-isopropyl-1-(2-methoxbenzyl)-5-(4-tolyl)pyrido[2,3-d]pyrimidine-3-acetic Acid], the IC50 worked out at 11 µM in assay [1], 64 µM in assay [2] and 11 µM in assay [3].

`CCOC(=O)c1c(C(C)C)nc2c(c1-c1cc(=O)c3ccccc3[nH]1)c(=O)n(CC(=O)O)c(=O)n2Cc1ccccc1OC` [Example 23, 2,4(1H,3H)-dioxo-6-ethoxycarbonyl-7-isopropyl-1-(2-methoxybenzyl)-5-[2-(4-quinolonyl)]pyrido[2,3-d]pyrimidine-3-acetic Acid]: the IC50 in assay [1] turned out to be 0.92 µM; in assay [4], 4.3 µM.

For `COc1ccccc1Cn1c(=O)n(CC(=O)O)c(=O)c2c(-c3ccc4ccccc4n3)c(C(=O)O)c(C(C)C)nc21` [Example 14, 2,4(1H,3H)-dioxo-6-carboxy-7-isopropyl-1-(2-methoxybenzyl)-5-(2-quinolyl)pyrido[2,3-d]pyrimidine-3-acetic Acid], the IC50 in assay [1] came to 3.7 µM; in assay [4], 67 µM.

Regarding `COc1ccccc1Cn1c(=O)n(CC(=O)O)c(=O)c2c(-c3ccc4ccccc4n3)c(C(=O)OCCC#N)c(C(C)C)nc21` [Example 29, 2,4(1H,3H)-dioxo-6-cyanoethoxycarbonyl-7-isopropyl-1-(2-methoxybenzyl)-5-(2-quinolyl)pyrido[2,3-d]pyrimidine-3-acetic Acid], the IC50 in assay [1] turned out to be 0.57 µM; in assay [4], 95 µM.

Take `COc1ccccc1Cn1c(=O)n(CC(=O)OC(C)(C)C)c(=O)c2c(-c3cc(=O)c4ccccc4[nH]3)c(C(=O)O)c(C(C)C)nc21` [Example 18, t-Butyl [2,4(1H,3H)-dioxo-6-carboxy-7-isopropyl-1-(2-methoxbenzyl)-5-[2-(4-quinolonyl)]pyrido[2,3-d]pyrimidine]-3-acetate]: the IC50 in assay [1] stood at 0.15 µM; in assay [4], 69 µM.

On to `COc1ccccc1Cn1c(=O)n(CC(=O)O)c(=O)c2c(-c3ccc4ccccc4n3)c(C(=O)OCC(C)C)c(C(C)C)nc21` [Example 27, 2,4(1H,3H)-dioxo-6-isobutoxycarbonyl-7-isopropyl-1-(2-methoxybenzyl)-5-(2-quinolyl)pyrido[2,3-d]pyrimidine-3-acetic Acid], for which the figures for the IC50 in assay [1] and in assay [4] were 4.5 µM and 47 µM, respectively.

In the case of `CCOC(=O)Cn1c(=O)c2c(-c3ccc4ccccc4n3)c(C(=O)O)c(C(C)C)nc2n(Cc2ccccc2OC)c1=O` [Example 17 Compound No. 1], the figures for the IC50 in assay [1] and in assay [4] were 0.71 µM and 19 µM, respectively.

As for `CSc1ccccc1Cn1c(=O)n(CC(=O)O)c(=O)c2c(-c3cc(=O)c4ccccc4[nH]3)c(C(=O)O)c(C(C)C)nc21` [Example 21 Compound No. 9], the IC50 in assay [1] stood at 0.056 µM; in assay [4] it was 14 µM.

`CCOC(=O)c1c(C(C)C)nc2c(c1-c1ccc3ccccc3n1)c(=O)n(CC(=O)O)c(=O)n2Cc1ccccc1OC` [Example 28 Compound No. 8]: the figures for the half-inhibitory concentration (IC50) in assay [1] and in assay [4] were 1.1 µM and 76 µM, respectively.

Take `CCOC(=O)Cn1c(=O)c2c(-c3cc(=O)c4ccccc4[nH]3)c(C(=O)O)c(C(C)C)nc2n(Cc2ccccc2OC)c1=O` [Example 19 Compound No. 2]: the IC50 in assay [1] was 0.07 µM; in assay [4], 65 µM.

As for `CCOC(=O)Cn1c(=O)c2c(-c3cc(=O)c4ccccc4[nH]3)c(C(=O)O)c(C(C)C)nc2n(Cc2ccccc2SC)c1=O` [Example 31, Ethyl [2,4(1H,3H)-dioxo-6-carboxy-7-isopropyl-1-(2-methylthiobenzyl)-5-[2-(4-quinolonyl)]pyrido[2,3-d]pyrimidine]-3-acetate], the IC50 in assay [1] was 0.12 µM; in assay [4] it was 88 µM.

Turning to `CCOC(=O)Cn1c(=O)c2c(-c3cc(=O)c4ccccc4[nH]3)c(C(=O)O)c(C(C)C)nc2n(Cc2ccc(OC)cc2OC)c1=O` [Example 19 Compound No. 5], the IC50 turned out to be 0.98 µM in assay [1] and 23 µM in assay [4].
